Measured values from patent US10517898B2, “Compositions and methods related to hematologic recovery” (The Regents of the University of California, priority 2014, dated 2019).

Test system: PTPσ^−/− BM cells
Experiment: Transendothelial migration assay (CFCs from migrated cells in lower chamber)
Type: cell-based
Conditions: 25 μM EHT1864, 16 hours culture, mouse spleen endothelial cell transwell, CFCs of migrated cells (FIG. 3D)
Method: Transendothelial migration assays were performed as follows. VeraVec™ mouse spleen endothelial cells (Angiocrine Bioscience, New York N.Y.) were cultured to confluence in […] pore transwells (Corning Incorporated, Corning N.Y.). Transwells were seeded with 200,000 BM cells in IMDM with 10% FBS, 1% penicillin-streptomycin, 125 ng/mL stem cell factor, 50 ng/mL Flt-3 ligand and 20 ng/mL thrombopoietin with or without 25 μM Rac inhibitor, EHT1864 (R&D Systems, Minneapolis, Minn.). 100 ng/mL SDF-1α (R&D) or media was added to the bottom chamber of the transwell. 16 hours post culture, cells in the bottom chamber were collected and CFCs were set up with the migrated cells.

Structure (SMILES): O=c1cc(CN2CCOCC2)occ1OCCCCCSc1ccnc2cc(C(F)(F)F)ccc12 [EHT1864]
- transendothelial migration capacity of PTPσ^−/− cells: completely abrogated
